Experimental data published in ChEMBL document CHEMBL1131587, “Novel peptidyl phosphorus derivatives as inhibitors of human calpain I” (J Med Chem, 1998).

Biological target: T1, Calpain-1 catalytic subunit (Homo sapiens, UniProt P07384)
T1 sequence (P07384 whole entry): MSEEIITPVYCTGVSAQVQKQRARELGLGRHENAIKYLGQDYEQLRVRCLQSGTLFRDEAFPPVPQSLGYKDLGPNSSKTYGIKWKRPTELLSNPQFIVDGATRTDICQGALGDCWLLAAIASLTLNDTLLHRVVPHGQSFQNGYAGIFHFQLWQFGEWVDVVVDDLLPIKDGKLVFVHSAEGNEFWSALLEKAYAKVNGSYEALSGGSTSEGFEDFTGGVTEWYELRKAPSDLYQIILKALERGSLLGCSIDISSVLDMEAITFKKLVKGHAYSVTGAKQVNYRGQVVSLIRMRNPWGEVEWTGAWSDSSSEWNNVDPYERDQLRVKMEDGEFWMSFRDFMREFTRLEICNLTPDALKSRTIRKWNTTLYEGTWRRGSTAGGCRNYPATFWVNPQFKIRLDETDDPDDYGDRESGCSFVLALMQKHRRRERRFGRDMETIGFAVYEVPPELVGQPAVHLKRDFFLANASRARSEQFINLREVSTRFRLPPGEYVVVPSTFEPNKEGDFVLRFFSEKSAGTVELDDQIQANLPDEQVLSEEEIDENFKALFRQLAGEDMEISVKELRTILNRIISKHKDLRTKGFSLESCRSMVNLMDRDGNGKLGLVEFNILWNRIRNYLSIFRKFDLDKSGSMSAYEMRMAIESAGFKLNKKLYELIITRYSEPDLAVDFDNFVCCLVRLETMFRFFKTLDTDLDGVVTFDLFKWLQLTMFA
Assay: inhibitory activity measured against recombinant human Calpain-I receptor

Compound | IC50 [µM]
COP(=O)(OC)C(=O)[C@@H](Cc1ccccc1)NC(=O)C(NC(=O)OCc1ccccc1)C(C)C (stereo not given in full) | 7.4
COP(=O)(O)C(=O)[C@@H](CC(C)C)NC(=O)C(CC(C)C)NC(=O)OCc1ccccc1 (stereo not given in full) | 5.2
CCOP(=O)(C(=O)[C@@H](CC(C)C)NC(=O)C(CC(C)C)NC(=O)OCc1ccccc1)c1ccccc1 (stereo not given in full) | 0.37
CCCCOP(=O)(OCCCC)C(=O)[C@@H](Cc1ccccc1)NC(=O)C(NC(=O)OCc1ccccc1)C(C)C (stereo not given in full) | > 10
CC(C)C(NC(=O)OCc1ccccc1)C(=O)N[C@H](Cc1ccccc1)C(=O)P(=O)(OCc1ccccc1)OCc1ccccc1 (stereo not given in full) | 6
CC(C)CC(NC(=O)OCc1ccccc1)C(=O)N[C@H](CC(C)C)C(=O)P(C)(C)=O (stereo not given in full) | > 10

Second part, the molecule after the results:

IC50 [µM] | Compound
0.6 | CCOC(=O)[C@@H](CC(C)C)NC(=O)C(CC(C)C)NC(=O)OCc1ccccc1 (stereo not given in full)
0.35 | CC(C)CC(NC(=O)OCc1ccccc1)C(=O)N[C@H](CC(C)C)C(=O)P(=O)(c1ccc(Cl)cc1)c1ccc(Cl)cc1 (stereo not given in full)
0.43 | COP(=O)(OC)C(=O)[C@@H](CC(C)C)NC(=O)C(CC(C)C)NC(=O)OCc1ccccc1 (stereo not given in full)
> 10 | CCCCOP(=O)(OCCCC)C(=O)[C@@H](CC(C)C)NC(=O)C(CC(C)C)NC(=O)OCc1ccccc1 (stereo not given in full)
